Laboratory results taken from US6610824B2 (Amylin Pharmaceuticals, Inc., priority 1991, dated 2003).
Where a SMILES comes first, the peptide text is derived from it.

Key:
Solubility = type: physicochemical; conditions: where a comparison is made, compared with human amylin
Text: (§1) This may be due in some measure, although this is not known, to the different aggregation properties of the amylins from different species.
(§2) The agonist analogues of amylin of this invention are useful in view of their pharmacological properties. […] In addition to the description of compounds pursuant to FIG. 3, certain preferred compounds are set forth in Table I. The preferred compounds des-^1Lys-h-amylin [SEQ. ID. NO. 7], ^28Pro-h-amylin [SEQ. ID. NO. 8], ^25, 28, 29Pro-h-amylin [SEQ. ID. NO. 9], ^18Arg^25, 28Pro-h-amylin [SEQ. ID. NO. 10], and des-^1Lys^18Arg^25, 28Pro-h-amylin [SEQ. ID. NO. […] These preferred compounds include ^25Pro^26Val^28, 29Pro-h-amylin [SEQ. ID. NO. 12], ^25, 28, 29Pro-h-amylin, and ^18Arg^25, 28Pro-h-amylin.

Stability in solution = type: physicochemical; conditions: where a comparison is made, compared with human amylin
Text: as §1, §2

amylin receptors = target: T1, amylin receptors (Rattus norvegicus, UniProt P32214); assay: Receptor binding assay (125I-rat amylin competition, rat basal forebrain membranes); conditions: competition with 125I-rat amylin at 12-16 pM
T1 construct: This basal forebrain tissue, containing the nucleus accumbens and surrounding regions, was weighed and homogenized; from tissue; host or cells: rat basal forebrain (nucleus accumbens and surrounding regions) membranes
T1 sequence (P32214 25-516): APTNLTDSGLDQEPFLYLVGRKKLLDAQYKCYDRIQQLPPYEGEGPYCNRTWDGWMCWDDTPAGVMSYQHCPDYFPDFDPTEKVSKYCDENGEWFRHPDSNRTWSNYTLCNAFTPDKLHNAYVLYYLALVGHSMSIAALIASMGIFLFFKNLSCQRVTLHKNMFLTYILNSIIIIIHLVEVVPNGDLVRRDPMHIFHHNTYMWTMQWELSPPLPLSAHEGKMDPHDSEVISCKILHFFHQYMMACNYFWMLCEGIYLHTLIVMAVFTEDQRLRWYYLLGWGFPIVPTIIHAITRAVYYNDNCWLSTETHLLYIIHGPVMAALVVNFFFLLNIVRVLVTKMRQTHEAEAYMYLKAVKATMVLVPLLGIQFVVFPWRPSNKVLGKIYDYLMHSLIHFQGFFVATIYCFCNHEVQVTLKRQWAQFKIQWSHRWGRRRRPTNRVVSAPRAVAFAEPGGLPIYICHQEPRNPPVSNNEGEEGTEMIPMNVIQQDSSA
T1 sequence (Q9JJ74 27-148 partner): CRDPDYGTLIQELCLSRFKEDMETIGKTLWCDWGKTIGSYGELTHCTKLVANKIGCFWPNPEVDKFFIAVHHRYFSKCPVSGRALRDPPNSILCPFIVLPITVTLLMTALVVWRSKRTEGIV
Text: Unlabeled peptides were obtained from BACHEM Inc. (Torrance, Calif.) and Peninsula Laboratories (Belmont, Calif.).
Male Sprague-Dawley rats (200-250) grams were sacrificed by decapitation. Brains were removed to cold phosphate-buffered saline (PBS). From the ventral surface, cuts were made rostral to the hypothalamus, bounded laterally by the olfactory tracts and extending at a 45Ε angle medially from these tracts. This basal forebrain tissue, containing the nucleus accumbens and surrounding regions, was weighed and homogenized in ice-cold 20 mM HEPES buffer (20 mM HEPES acid, pH adjusted to 7.4 with NaOH at 23ΕC). […] The final membrane pellet was resuspended in 20 mM HEPES buffer containing 0.2 mM phenylmethylsulfonyl fluoride (PMSF).
Solutions were incubated for 60 minutes at 2ΕC. […] Filters were washed immediately before filtration with 5 ml cold PBS, and immediately after filtration with 15 ml cold PBS.

| IC50 (amylin receptors) [nM] | Compound | solubility (Solubility) | stability in solution (Stability in solution) |
| --- | --- | --- | --- |
| – | CC[C@H](C)[C@H](NC(=O)[C@H](C)NC(=O)CNC(=O)[C@H](Cc1ccccc1)NC(=O)[C@H](CC(N)=O)NC(=O)[C@H](CC(N)=O)NC(=O)[C@H](CO)NC(=O)[C@H](CO)NC(=O)[C@H](Cc1c[nH]cn1)NC(=O)[C@@H](NC(=O)[C@H](CC(C)C)NC(=O)[C@H](Cc1ccccc1)NC(=O)[C@H](CC(N)=O)NC(=O)[C@H](C)NC(=O)[C@H](CC(C)C)NC(=O)[C@H](CCCNC(=N)N)NC(=O)[C@H](CCC(N)=O)NC(=O)[C@@H](NC(=O)[C@H](C)NC(=O)[C@@H]1CSSC[C@H](NC(=O)[C@@H](N)CCCCN)C(=O)N[C@@H](CC(N)=O)C(=O)N[C@@H]([C@@H](C)O)C(=O)N[C@@H](C)C(=O)N[C@@H]([C@@H](C)O)C(=O)N1)[C@@H](C)O)C(C)C)C(=O)N[C@@H](CC(C)C)C(=O)N[C@@H](CO)C(=O)N[C@@H](CO)C(=O)N[C@H](C(=O)N[C@@H](CC(N)=O)C(=O)N[C@H](C(=O)NCC(=O)N[C@@H](CO)C(=O)N[C@@H](CC(N)=O)C(=O)N[C@H](C(=O)N[C@@H](Cc1ccc(O)cc1)C(N)=O)[C@@H](C)O)C(C)C)[C@@H](C)O [human amylin] | limited solubility | limited stability |
| – | rat amylin | higher | higher |
| 0.31 | CC[C@H](C)[C@H](NC(=O)[C@H](C)NC(=O)CNC(=O)[C@H](Cc1ccccc1)NC(=O)[C@H](CC(N)=O)NC(=O)[C@H](CC(N)=O)NC(=O)[C@H](CO)NC(=O)[C@H](CO)NC(=O)[C@H](Cc1c[nH]cn1)NC(=O)[C@@H](NC(=O)[C@H](CC(C)C)NC(=O)[C@H](Cc1ccccc1)NC(=O)[C@H](CC(N)=O)NC(=O)[C@H](C)NC(=O)[C@H](CC(C)C)NC(=O)[C@H](CCCNC(=N)N)NC(=O)[C@H](CCC(N)=O)NC(=O)[C@@H](NC(=O)[C@H](C)NC(=O)[C@@H]1CCCCNC(=O)C[C@H](NC(=O)[C@@H](N)CCCCN)C(=O)N[C@@H](CC(N)=O)C(=O)N[C@@H]([C@@H](C)O)C(=O)N[C@@H](C)C(=O)N[C@@H]([C@@H](C)O)C(=O)N1)[C@@H](C)O)C(C)C)C(=O)N[C@@H](CC(C)C)C(=O)N[C@@H](CO)C(=O)N[C@@H](CO)C(=O)N[C@H](C(=O)N[C@@H](CC(N)=O)C(=O)N[C@H](C(=O)NCC(=O)N[C@@H](CO)C(=O)N[C@@H](CC(N)=O)C(=O)N[C@H](C(=O)N[C@@H](Cc1ccc(O)cc1)C(N)=O)[C@@H](C)O)C(C)C)[C@@H](C)O [Example 3, ^2, 7Cyclo-[^2Asp, ^7Lys]-h-Amylin] (HELM PEPTIDE1{K.D.N.T.A.T.K.A.T.Q.R.L.A.N.F.L.V.H.S.S.N.N.F.G.A.I.L.S.S.T.N.V.G.S.N.T.Y.[am]}$PEPTIDE1,PEPTIDE1,2:R3-7:R3$$$V2.0) | – | – |
